Results published in patent publication US5340818A, “Methods and compositions for inhibiting tumor cell growth” (priority 1993, dated 1994).
Values joined by “and” are separate entries in the source; they are usually repeats but may differ in a detail not shown here. Equal entries are not always repeated. Where two headings read alike, the source gives them in different places.

Assays:
Format in all cases: cell-based, human
[1] = tested on: DNA synthesis in HL-60 cells; assay: Inhibition of [3H-methyl]dThd incorporation into DNA of HL-60 cells; details: for inhibition at 30 µg/mL: Homo sapiens, HL-60, at 0.03 mg/mL, read-out: % Inhibition of Precursor Incorporation, DNA; for inhibition of DNA synthesis, in words: HL-60, 0.03 mg/ml; for % Inhibition of Precursor Incorporation, DNA: at 0.03 mg/mL
Method: (§1) For the precursor incorporation studies, each compound (in 0.3% dimethylsulfoxide) was preincubated with HL-60 cells (a human promyelocytic leukemic cell line) 2.2×10^6 /ml, for 15 min prior to the addition of the labeled precursor (obtained from ICN Radiochemicals, Irvine, Calif.) and then incubated for 30 min. The precursors used for incorporation into DNA, RNA and protein were [^3 H-methyl]dThd (1 μCi, 0.15 nmole/ml), [5-^3 H]Cyd (5 μCi, 0.23 nmol/ml), and [2,3,4,5-^3 H]L-Leu (0.5 μCi, 0.004 nmol/ml), respectively. Incorporation of radioactivity in the absence of a plant compound and in the presence of dimethylsulfoxide was used as a control.
Human promyelocytic cells (HL-60) were incubated with [^3 H-methyl]dTHDin the presence and absence of a plant alkaloid.

[2] = tested on: protein synthesis in HL-60 cells; assay: Inhibition of [2,3,4,5-3H]L-Leu incorporation into protein of HL-60 cells; details: Homo sapiens
Method: as §1, with “control. The control values for incorporation into DNA, RNA and protein were 8,500, 5,600 and 1,700 cpm/10^6 cells, respectively. The incubation conditions and the procedures for isolating DNA, RNA and protein fractions have been previously described (Chou, T. -C., et al., Cancer Res., 43:3074-3079 (1983)) .” for “control.”
(§2) HL-60 cells were incubated with [5-^3 H]Cyd or [2,3,4,5-^3 H]L-Leu in the presence and absence of alkaloids (0.03 mg/ml) in order to find the effects of the alkaloid on the incorporation of labeled precursors into RNA or protein. […] Over 90% of RNA and protein biosynthesis were inhibited by compounds 11, 16, 17, 22, 28, 29and 30 (Table 1). […] In most cases, the amount required to inhibit precursor incorporation into DNA was less than that to inhibit precursor incorporation into RNA or protein (i.e. DNA synthesis is inhibited most potently).

HL-60 cells = assay: HL-60 cell growth inhibition, 72 h; details: HL-60, 72 h; for IC50: read-out: Cell Growth Inhibition, IC50
Method: For growth inhibition studies, HL-60 cells (1.5×10^5 /ml) were grown in RPMI 1640 media (GIBCO, Grand Island, N.Y.) at 37° C. in humidified 5% CO2 for 72 h. Viable cells were determined using trypan blue exclusion and counted in a hemocytometer. The fractional inhibition for each compound concentration (0.0025-0.05 mg/ml in 0.1% dimethylsulfoxide) was analyzed with the median-effect plot using a computer program (Chou, T. -C and P. Talalay, Adv. Enzyme Regul., 22:27-55 (1984); Chou, J. and T. -C. thou, Dose-Effect analysis with microcomputers: Quantitation of ED50, LD50, synergism, antagonism, low-dose risk, receptor ligand binding and enzyme kinetics. A computer software disk for Apple II series or IBM-PC and manual. Elsevier Science Publishers, Elsevier-BioSoft, Cambridge, United Kingdom (1986)). The median-effect concentration (IC50) was determined automatically for three to five dose-effect levels. Cell growth in the absence of plant compound and in the presence of dimethylsulfoxide was used as a control. Dimethylsulfoxide alone inhibited cell growth 3.9%±1.5% during the 72 h incubation period. Those data with negative values represent activations.

[3] = tested on: RNA synthesis in HL-60 cells; assay: Inhibition of [5-3H]Cyd incorporation into RNA of HL-60 cells; details: Homo sapiens, HL-60, 0.5 h
Method: as §1, with “control. The control values for incorporation into DNA, RNA and protein were 8,500, 5,600 and 1,700 cpm/10^6 cells, respectively. The incubation conditions and the procedures for isolating DNA, RNA and protein fractions have been previously described (Chou, T. -C., et al., Cancer Res., 43:3074-3079 (1983)) .” for “control.”
as §2

[4] = HL-60, at 0.03 mg/mL, read-out: % Inhibition of Precursor Incorporation, Protein
[5] = at 0.03 mg/mL, read-out: % Inhibition of Precursor Incorporation, RNA
[6] = HL-60, read-out: % Inhibition of Precursor Incorporation, Protein, at 0.03 mg/mL
[7] = read-out: % Inhibition of Precursor Incorporation, RNA, at 0.03 mg/mL

IC50 (HL-60 cells; Homo sapiens) | Cell Growth Inhibition, IC50 (HL-60 cells) | IC50 (HL-60 cells) | Compound | inhibition at 30 µg/mL [1] | inhibition at 30 µg/mL [2, 4] | inhibition at 30 µg/mL [3, 5] | inhibition of DNA synthesis, in words [1] | cell growth inhibition, in words (HL-60 cells) | inhibition at 30 µg/mL [2, 6] | inhibition at 30 µg/mL [3, 7] | % Inhibition of Precursor Incorporation, DNA [1]
> 40 µg/mL and > 127 µM | – | – | COc1cc(O)c2c(=O)c3ccc(OC)c(OC)c3n(C)c2c1 | 34.8% | 28.3% | 95% | – | – | – | – | –
20.6 µg/mL and 90.7 µM | – | – | O=c1c2ccccc2[nH]c2cc(O)cc(O)c12 [Compound 4, 1,3-Dihydroxy-acridone] | 76.7% | 62.8% | 50.6% | no significant activity | – | – | – | –
> 40 µg/mL and > 129 µM | – | – | CC(=O)Oc1cc(OC(C)=O)c2c(=O)c3ccccc3[nH]c2c1 [Compound 5, 1,3-O,O-Diacetyl-acridone] | 39.7% | 26.9% | 24.9% | no significant activity | – | – | – | –
> 40 µg/mL and > 123 µM | – | – | CC(=O)Oc1cc(OC(C)=O)c2c(=O)c3ccccc3n(C)c2c1 [Compound 6] | 23% | -12.8% | 2.7% | – | – | – | – | –
> 40 µg/mL and > 157 µM | – | – | COc1cc(O)c2c(=O)c3ccccc3n(C)c2c1 [Compound 7, 1-Hydroxy-3-methoxy N-methyl acridone] | 48.4% | 25.2% | 39.5% | – | – | – | – | –
> 40 µg/mL and > 157 µM | – | – | COc1cc(O)cc2c1c(=O)c1ccccc1n2C [Compound 8, 1-Methoxy-3-Hydroxy N-methyl acridone] | 53.3% | 25.7% | 51.2% | – | – | – | – | –
30.5 µg/mL and 103 µM | – | – | COc1cc(OC(C)=O)cc2c1c(=O)c1ccccc1n2C [Compound 9, 3-O-Acetyl-1-methoxy-R-methyl acridone] | 71.1% | 30% | 61.6% | – | – | – | – | –
9.2 µg/mL and 34.2 µM | – | – | COc1cc(OC)c2c(=O)c3ccccc3n(C)c2c1 [Compound 10, 1,3-Dimethoxy-N-methyl acridone] | > 90% | 64.4% | 65.8% | excellent inhibitory effect | – | – | – | –
8.2 µg/mL and 26.5 µM | – | – | CC(C)=CCc1c(O)cc(O)c2c(=O)c3ccccc3n(C)c12 [Compound 11, Glycocitrine-II] | 99.5% | 95.3% | 97.1% | potent inhibitor | – | – | – | –
> 40 µg/mL and > 124 µM | – | – | COc1cc(O)c2c(=O)c3ccccc3n(C)c2c1CC=C(C)C [Compound 12, 3-O-methyl-glycocitrine-II] | 61.8% | 50.3% | 53.8% | only moderate inhibitory activity | – | – | – | –
1.4 µg/mL and 4.1 µM | – | – | COc1cc(O)c2c(=O)c3cccc(O)c3n(C)c2c1CC=C(C)C [Compound 13, Glycocitrine-I] | 97.5% | 41.1% | 43.9% | – | significant activity against leukemic cells in vitro | – | – | –
5.6 µg/mL and 13.2 µM | – | – | COc1cc(OC(C)=O)c2c(=O)c3cccc(OC(C)=O)c3n(C)c2c1CC=C(C)C [Compound 14, OO-Diacetyl-glycocitrine-I] | 94.7% | 89.8% | 63.8% | – | significant activity against leukemic cells in vitro | – | – | –
13.3 µg/mL and 40.4 µM | – | – | COc1cc(OC)c2c(=O)c3cccc(OC)c3n(C)c2c1OC [Compound 18, 1,3,4,5-Tetra-methoxy-N-methyl acridone] | 91.5% | 71.8% | 57% | – | – | – | – | –
> 40 µg/mL and > 133 µM | – | – | COc1ccc2c(=O)c3c(O)cc(O)cc3n(C)c2c1OC [Compound 19, Grandisine-II] | 76.5% | 27.3% | 96% | – | – | – | – | –
38.7 µg/mL and 113 µM | – | – | COc1ccc2c(=O)c3c(O)cc(OC(C)=O)cc3n(C)c2c1OC [Compound 20, O-Acetyl-grandisine-II] | 24.4% | -5.6% | 77% | – | – | – | – | –
> 40 µg/mL and > 133 µM | – | – | COc1cc(O)c2c(=O)c3ccc(OC)c(O)c3n(C)c2c1 [Compound 21, Grandisine-I] | 71.7% | 22.8% | 69.5% | – | – | – | – | –
– | > 0.04 mg/mL | > 133 µM | COc1cc(O)c2c(=O)c3ccc(O)c(OC)c3n(C)c2c1 [Compound 22, Citpressine-I] | – | – | – | – | – | – | – | 65.0%
22 µg/mL and 66.8 µM | – | – | COc1cc(OC)c2c(=O)c3ccc(OC)c(OC)c3n(C)c2c1 [Compound 24, 1-O-Methyl-citpressine-II] | 93.1% | 75.6% | 67.3% | – | – | – | – | 93%
3.6 µg/mL and 10.1 µM | – | – | COc1c(O)ccc2c(=O)c3c(O)c(CC=C(C)C)c(O)cc3n(C)c12 [Compound 25, Buntanine] | 96.6% | 40.1% | 29.8% | – | – | – | – | –
36 µg/mL and 94.5 µM | – | – | COc1c(O)ccc2c(=O)c3c(O)cc(O)c(CC=C(C)C)c3n(C)c12 [Compound 27, Prenylcitpressine] | 52.4% | -15.7% | 21.1% | – | – | – | – | –
2.2 µg/mL and 5 µM | – | – | COc1c(OC(C)=O)ccc2c(=O)c3c(O)cc(OC(C)=O)c(CC=C(C)C)c3n(C)c12 [Compound 28, 3,6-O,O-Diacetyl-prenylcitpressine] | 96.8% | 89.6% | 96.1% | – | significant activity against leukemic cells in vitro | – | – | –

Compound | IC50 (HL-60 cells; Homo sapiens) | Cell Growth Inhibition, IC50 (HL-60 cells) | IC50 (HL-60 cells) | inhibition at 30 µg/mL [1] | inhibition at 30 µg/mL [2, 4] | inhibition at 30 µg/mL [3, 5] | inhibition of DNA synthesis, in words [1] | cell growth inhibition, in words (HL-60 cells) | inhibition at 30 µg/mL [2, 6] | inhibition at 30 µg/mL [3, 7] | % Inhibition of Precursor Incorporation, DNA [1]
COc1c(O)cc(O)c2c(=O)c3cccc(O)c3n(C)c12 [Compound 15, Citrusinine-II] | 17 µg/mL and 59.2 µM | – | – | 88.5% | – | – | – | – | 54.3% | 91.7% | –
COc1cc(O)c2c(=O)c3cccc(O)c3n(C)c2c1OC [Compound 16, Citrusinine-I] | 2.6 µg/mL and 8.6 µM | – | – | 97% | – | – | – | significant activity against leukemic cells in vitro | 87% | 96.5% | –
CC(C)=CCc1c(O)c(CC=C(C)C)c2c(c1O)c(=O)c1cccc(O)c1n2C [Compound 26, N-methyl-atalaphylline] | 5.4 µg/mL and 13.7 µM | – | – | 99.6% | – | – | – | significant activity against leukemic cells in vitro | 44.3% | 28.2% | –
